Data from PMC10648852, “Molecular drivers of resistance to sulbactam-durlobactam in contemporary clinical isolates of Acinetobacter baumannii” (Antimicrobial Agents and Chemotherapy, 2023).

How the values were obtained:
Experiment in all cases: microbe, parasite or virus in culture
[1] = system: ABC clinical isolates with SUL-DUR MIC > 4 µg/mL; format: cell-based, Acinetobacter baumannii-calcoaceticus complex
Description: (§1) The following report describes the genomic analysis of these isolates for likely resistance mechanisms. Biochemical analysis of purified PBP3 and phenotypic analyses of both clinical and isogenic strains were also conducted to determine the relative impact of key resistance determinants to SUL-DUR antibacterial activity.
(§2) Antimicrobial susceptibility testing was performed using broth microdilution following standardized methods established by the Clinical Laboratory Standards Institute (CLSI) ([35], [36]). […] MIC values were interpreted using CLSI breakpoints for all antimicrobial agents except those for which CLSI breakpoints are not available ([35]). SUL-DUR was tested as twofold dilutions of sulbactam in combination with a fixed concentration of 4 µg/mL durlobactam ([35]).

[2] = system: A. nosocomialis clinical isolate; format: cell-based; conditions: isolate ARC7023 (IHMA 2118812), France, BSI, 2019
Description: as §1, §2

[3] = system: A. baumannii clinical isolates; format: cell-based
Description: as §1, §2

[4] = system: A. pittii clinical isolates; format: cell-based
Description: as §1, §2

NCC[C@H](O)C(=O)N[C@@H]1C[C@H](N)[C@@H](O[C@H]2O[C@H](CN)[C@@H](O)[C@H](O)[C@H]2O)[C@H](O)[C@H]1O[C@H]1O[C@H](CO)[C@@H](O)[C@H](N)[C@H]1O [AMK]
MIC50 [1]: >64 µg/mL | MIC90 [1]: >64 µg/mL | MIC Max [1]: >64 µg/mL | MIC Min [1]: 2 µg/mL | %NS (% non-susceptibility) ([1]; 64 non-clonal ABC isolates, 2023 CLSI breakpoints plus FDA breakpoint of 4 µg/mL for SUL-DUR): 75% | MIC [2]: 4 µg/mL | MIC ([3]; isolate ARC6644 (IHMA 1420327), Mexico, UTI, 2016): >64 µg/mL | MIC ([3]; isolate ARC6645 (IHMA 1435703), France, UTI, 2016): 2 µg/mL | MIC ([3]; isolate ARC6646 (IHMA 1484127), United States, RTI, 2016): >64 µg/mL | MIC ([3]; isolate ARC6647 (IHMA 1386786), Argentina, RTI, 2016): >64 µg/mL | MIC ([3]; isolate ARC6648 (IHMA 1407634), Spain, RTI, 2016): 4 µg/mL | MIC ([3]; isolate ARC6650 (IHMA 1457337), Argentina, RTI, 2016): 16 µg/mL | MIC ([3]; isolate ARC6652 (IHMA 1465642), Belgium, RTI, 2016): 4 µg/mL | MIC ([3]; isolate ARC6653 (IHMA 1308777), Vietnam, RTI, 2016): >64 µg/mL | MIC ([3]; isolate ARC6799 (IHMA 1562935), Spain, UTI, 2017): 64 µg/mL | MIC ([3]; isolate ARC6800 (IHMA 1557526), Turkey, RTI, 2017): >64 µg/mL | MIC ([3]; isolate ARC6801 (IHMA 1662094), Thailand, RTI, 2017): 32 µg/mL | MIC ([3]; isolate ARC6802 (IHMA 1557073), Spain, UTI, 2017): >64 µg/mL | MIC ([3]; isolate ARC6803 (IHMA 1589408), Belgium, UTI, 2017): 4 µg/mL | MIC ([3]; isolate ARC6805 (IHMA 1558650), United States, RTI, 2017): >64 µg/mL | MIC ([3]; isolate ARC6808 (IHMA 1557168), Spain, RTI, 2017): 2 µg/mL | MIC ([3]; isolate ARC6809 (IHMA 1699528), Guatemala, RTI, 2017): 32 µg/mL | MIC ([3]; isolate ARC6810 (IHMA 1699548), Guatemala, RTI, 2017): >64 µg/mL | MIC ([3]; isolate ARC6812 (IHMA 1699530), Guatemala, RTI, 2017): 4 µg/mL | MIC ([3]; isolate ARC6813 (IHMA 1699543), Guatemala, UTI, 2017): 32 µg/mL | MIC ([3]; isolate ARC6814 (IHMA 1699512), Guatemala, RTI, 2017): >64 µg/mL | MIC ([3]; isolate ARC6815 (IHMA 1699513), Guatemala, RTI, 2017): 64 µg/mL | MIC ([3]; isolate ARC6816 (IHMA 1699521), Guatemala, RTI, 2017): >64 µg/mL | MIC ([3]; isolate ARC6817 (IHMA 1699523), Guatemala, RTI, 2017): 16 µg/mL | MIC ([3]; isolate ARC6818 (IHMA 1683261), Thailand, RTI, 2017): 2 µg/mL | MIC ([3]; isolate ARC6819 (IHMA 1683267), Thailand, RTI, 2017): >64 µg/mL | MIC ([3]; isolate ARC6820 (IHMA 1647876), Argentina, RTI, 2017): 4 µg/mL | MIC ([3]; isolate ARC6821 (IHMA 1699517), Guatemala, RTI, 2017): 2 µg/mL | MIC ([3]; isolate ARC6822 (IHMA 1637626), Guatemala, RTI, 2017): 8 µg/mL | MIC ([3]; isolate ARC6823 (IHMA 1620872), Greece, SSSI, 2017): >64 µg/mL | MIC ([3]; isolate ARC6824 (IHMA 1625487), Argentina, BSI, 2017): 64 µg/mL | MIC ([3]; isolate ARC6937 (IHMA 1562926), Spain, UTI, 2017): 64 µg/mL | MIC ([3]; isolate ARC6950 (IHMA 1820064), Israel, RTI, 2018): >64 µg/mL | MIC ([3]; isolate ARC6953 (IHMA 1909827), Turkey, IAI, 2018): 8 µg/mL | MIC ([3]; isolate ARC6954 (IHMA 1838192), Guatemala, SSSI, 2018): 16 µg/mL | MIC ([3]; isolate ARC6955 (IHMA 1825425), United States, RTI, 2018): 64 µg/mL | MIC ([3]; isolate ARC7008 (IHMA 2009813), Thailand, BSI, 2019): >64 µg/mL | MIC ([3]; isolate ARC7009 (IHMA 2043611), United States, UTI, 2019): >64 µg/mL | MIC ([3]; isolate ARC7010 (IHMA 2043398), United States, RTI, 2019): >64 µg/mL | MIC ([3]; isolate ARC7011 (IHMA 2104553), Germany, RTI, 2019): >64 µg/mL | MIC ([3]; isolate ARC7012 (IHMA 2010001), Thailand, RTI, 2019): >64 µg/mL | MIC ([3]; isolate ARC7013 (IHMA 1962831), Argentina, RTI, 2019): >64 µg/mL | MIC ([3]; isolate ARC7014 (IHMA 2045328), Guatemala, IAI, 2019): >64 µg/mL | MIC ([3]; isolate ARC7015 (IHMA 2045327), Guatemala, UTI, 2019): 32 µg/mL | MIC ([3]; isolate ARC7016 (IHMA 2148441), Brazil, BSI, 2019): >64 µg/mL | MIC ([3]; isolate ARC7017 (IHMA 2148446), Brazil, BSI, 2019): 64 µg/mL | MIC ([3]; isolate ARC7018 (IHMA 2045454), Guatemala, IAI, 2019): 32 µg/mL | MIC ([3]; isolate ARC7019 (IHMA 2114463), Thailand, RTI, 2019): >64 µg/mL | MIC ([3]; isolate ARC7020 (IHMA 2045326), Guatemala, RTI, 2019): >64 µg/mL | MIC ([3]; isolate ARC7021 (IHMA 1966347), Guatemala, RTI, 2019): 64 µg/mL | MIC ([3]; isolate ARC7022 (IHMA 2045319), Guatemala, IAI, 2019): >64 µg/mL | MIC ([3]; isolate ARC7024 (IHMA 2059448), Turkey, RTI, 2019): >64 µg/mL | MIC ([3]; isolate ARC7025 (IHMA 2002121), Spain, RTI, 2019): 2 µg/mL | MIC ([3]; isolate ARC7026 (IHMA 2104494), Guatemala, BSI, 2019): 64 µg/mL | MIC ([3]; isolate ARC7082 (IHMA 2160640), Belgium, BSI, 2020): >64 µg/mL | MIC ([3]; isolate ARC7083 (IHMA 2163687), United States, RTI, 2020): >64 µg/mL | MIC ([3]; isolate ARC7084 (IHMA 2189596), Germany, RTI, 2020): >64 µg/mL | MIC ([3]; isolate ARC7085 (IHMA 2205747), Guatemala, IAI, 2020): >64 µg/mL | MIC ([3]; isolate ARC7086 (IHMA 2207563), Israel, RTI, 2020): >64 µg/mL | MIC ([3]; isolate ARC7088 (IHMA 2215554), Turkey, BSI, 2020): >64 µg/mL | MIC ([3]; isolate ARC7089 (IHMA 2240345), Argentina, BSI, 2020): 2 µg/mL | MIC ([3]; isolate ARC7090 (IHMA 2244410), Poland, RTI, 2020): >64 µg/mL | MIC ([3]; isolate ARC7091 (IHMA 2244564), Australia, RTI, 2020): 16 µg/mL | MIC ([3]; isolate ARC7092 (IHMA 2258772), United States, BSI, 2020): >64 µg/mL | MIC ([3]; isolate ARC7093 (IHMA 2258783), United States, RTI, 2020): >64 µg/mL | MIC ([3]; isolate ARC7094 (IHMA 2296423), Turkey, RTI, 2020): 64 µg/mL | MIC ([3]; isolate ARC7095 (IHMA 2320843), Turkey, BSI, 2020): >64 µg/mL | MIC ([3]; isolate ARC7156 (IHMA 2455450), Greece, RTI, 2021): >64 µg/mL | MIC ([3]; isolate ARC7158 (IHMA 2523738), Italy, BSI, 2021): >64 µg/mL | MIC ([3]; isolate ARC7159 (IHMA 2456229), Malaysia, RTI, 2021): >64 µg/mL | MIC ([3]; isolate ARC7160 (IHMA 2458626), Thailand, RTI, 2021): >64 µg/mL | MIC ([3]; isolate ARC7161 (IHMA 2429252), Ukraine, RTI, 2021): >64 µg/mL | MIC ([3]; isolate ARC7162 (IHMA 2411847), United States, BSI, 2021): >64 µg/mL | MIC ([3]; isolate ARC7163 (IHMA 2477704), United States, BSI, 2021): >64 µg/mL | MIC ([4]; isolate ARC6949 (IHMA 1898982), Romania, RTI, 2018): >64 µg/mL | MIC ([4]; isolate ARC6951 (IHMA 1776233), Philippines, RTI, 2018): 32 µg/mL | MIC ([4]; isolate ARC6952 (IHMA 1899008), Romania, RTI, 2018): >64 µg/mL | MIC ([4]; isolate ARC7087 (IHMA 2212062), Colombia, BSI, 2020): 8 µg/mL
